Measurements taken from patent EP4596574A1, “GLP-1/GCG/GIP TRIPLE-RECEPTOR AGONIST AND USE THEREOF” (Sunshine Lake Pharma Co., Ltd., priority 2022, dated 2024).
Marks after values point to notes of the source that are not given here.

Tests used:
GIPR = target: T1, GIPR (Homo sapiens, UniProt P48546); experiment: In vitro cell activity, cAMP production in HEK293 cells expressing GIPR; type: cell-based
T1 construct: expressed in transfected cells; host or cells: HEK293 (HEK293-GIPR)
T1 sequence (P48546 22-466): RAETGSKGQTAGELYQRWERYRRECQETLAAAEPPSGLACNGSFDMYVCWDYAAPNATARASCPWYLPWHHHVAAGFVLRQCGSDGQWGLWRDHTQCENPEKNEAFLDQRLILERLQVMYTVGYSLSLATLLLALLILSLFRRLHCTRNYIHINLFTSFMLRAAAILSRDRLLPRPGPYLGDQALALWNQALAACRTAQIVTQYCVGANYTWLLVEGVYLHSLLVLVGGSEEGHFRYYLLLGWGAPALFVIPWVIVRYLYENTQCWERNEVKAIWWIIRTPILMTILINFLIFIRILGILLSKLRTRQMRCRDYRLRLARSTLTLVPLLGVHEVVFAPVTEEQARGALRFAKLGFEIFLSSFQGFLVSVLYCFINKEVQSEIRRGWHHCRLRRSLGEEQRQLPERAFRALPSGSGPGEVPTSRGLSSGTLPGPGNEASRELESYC
Procedure, shortened: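 cAMP accumulation is quantified by homogeneous TR-FRET (cAMP-d2 plus anti-cAMP cryptate) in GIPR-expressing HEK293 cells seeded from a 4×10^5 cells/mL suspension and treated with compound. The signal ratio is plotted against concentration and fitted to a four-parameter curve to give EC50.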

GLP-1R = target: T2, GLP-1R (Homo sapiens, UniProt P43220); experiment: In vitro cell activity, cAMP production in HEK293 cells expressing GLP-1R; type: cell-based
T2 construct: expressed in transfected cells; host or cells: HEK293 (HEK293-GLP-1R)
Procedure, shortened: (§1)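 Assay format: cells at 4×10^5 cells/mL, cAMP sensed by d2/cryptate FRET pair, dual-wavelength read at 665 and 620 nm. Potency expressed as EC50 from nonlinear fitting.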

[1] = Glucose tolerance assessment in normal C57BL/6 mice (Example 5); type: in vivo
Experimental: Twelve hours after the single administration, the animals were fasted for 12 hours and had free access to water. Blood was collected from the tail vein to determine the basal blood glucose level of each group of animals, and then 2 g/kg glucose solution was injected intraperitoneally. Blood glucose was tested at 15, 30, 60, and 90 min after glucose administration. The blood glucose concentration-time curve was drawn according to the blood glucose values measured at different time points, and the AUC0~90min of each dose group was calculated as shown in Table 5 and Figure 2. Table 5: Effects of single administration of HEC-PT86, HEC-PT96, HEC-PT112, HEC-PT113, HEC-PT114, and HEC-PT119 on glucose tolerance in normal C57 mice 24 h after administration

[2] = Long-term repeated administration in diet-induced obese C57BL/6 mice (DIO); type: in vivo, C57/BL6 mice
Text: Experimental methods: C57/BL6 mice were randomly divided into a normal group (NFD) and a model group (HFD) at the fifth week of age. The normal group was fed with ordinary maintenance feed, while the other groups were fed with high-fat feed D12492. The body weight and food intake of mice were monitored every 3 weeks. After 16 weeks of feeding, the body weights of mice in the model group and the normal group were (49.0±2.3) g and (31.0±2.0) g, respectively, and the difference between the two groups was statistically significant. […] Body weight and food intake were measured before each administration. After 3 weeks of administration, an intraperitoneal glucose tolerance test was performed. The mice were slaughtered and samples were collected 72 h after the last administration. The liver weight was recorded, and the liver pathological conditions and blood biochemical indexes of each group were tested.

GCGR = target: T3, GCGR (Homo sapiens, UniProt P47871); experiment: In vitro cell activity, cAMP production in HEK293 cells expressing GCGR; type: cell-based
T3 construct: expressed in transfected cells; host or cells: HEK293 (HEK293-GCGR)
Procedure, shortened: as §1

[3] = 10 nmol/kg s.c. once every 3 days, D7
[4] = 10 nmol/kg s.c. once every 3 days, D10
[5] = 10 nmol/kg s.c. once every 3 days, D13
[6] = 10 nmol/kg s.c. once every 3 days, D16
[7] = 10 nmol/kg s.c. once every 3 days, D19
[8] = 10 nmol/kg s.c. once every 3 days, D22
[9] = 10 nmol/kg s.c. once every 3 days, D25
[10] = 10 nmol/kg s.c. once every 3 days, D28
[11] = after 4 weeks of administration, same dose
[12] = long-term administration 10 nmol/kg, 72 h after the last administration
[13] = long-term administration 10 nmol/kg, blood biochemical index

T2 sequence (P43220 24-463, species assumed): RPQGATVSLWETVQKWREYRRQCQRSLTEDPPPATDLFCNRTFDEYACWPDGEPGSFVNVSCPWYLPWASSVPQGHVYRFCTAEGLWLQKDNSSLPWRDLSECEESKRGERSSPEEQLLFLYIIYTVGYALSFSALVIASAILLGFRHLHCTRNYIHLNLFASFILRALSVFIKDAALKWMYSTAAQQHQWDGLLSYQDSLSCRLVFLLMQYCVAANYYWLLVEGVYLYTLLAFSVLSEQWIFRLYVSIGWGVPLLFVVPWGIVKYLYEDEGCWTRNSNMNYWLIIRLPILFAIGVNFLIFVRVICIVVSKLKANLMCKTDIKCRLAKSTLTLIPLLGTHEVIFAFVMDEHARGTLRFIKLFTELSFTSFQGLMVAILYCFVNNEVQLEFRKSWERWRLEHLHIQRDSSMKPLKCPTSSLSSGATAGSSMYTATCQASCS
T3 sequence (P47871 26-477, species assumed): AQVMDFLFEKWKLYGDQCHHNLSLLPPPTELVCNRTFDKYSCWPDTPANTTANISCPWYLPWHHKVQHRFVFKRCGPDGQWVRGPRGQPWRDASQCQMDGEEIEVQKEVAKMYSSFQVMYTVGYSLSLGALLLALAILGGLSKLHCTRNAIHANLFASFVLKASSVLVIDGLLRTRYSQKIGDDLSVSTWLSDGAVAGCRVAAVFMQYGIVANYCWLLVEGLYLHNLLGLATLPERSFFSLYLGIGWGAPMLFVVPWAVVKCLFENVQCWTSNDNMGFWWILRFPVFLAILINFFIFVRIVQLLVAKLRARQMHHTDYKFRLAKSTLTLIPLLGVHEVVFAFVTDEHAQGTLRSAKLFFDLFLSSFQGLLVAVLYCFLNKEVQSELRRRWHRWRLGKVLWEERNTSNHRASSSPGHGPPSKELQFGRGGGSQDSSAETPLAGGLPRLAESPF

Question: With `CC[C@H](C)[C@H](NC(=O)[C@H](Cc1ccccc1)NC(=O)[C@H](C)NC(=O)C(C)(C)NC(=O)[C@H](CCC(N)=O)NC(=O)[C@H](CCCNC(=N)N)NC(=O)[C@H](CCCCNC(=O)COCCOCCNC(=O)CC[C@H](NC(=O)CCCCCCCCCCCCCCCCC(=O)O)C(=O)O)NC(=O)[C@H](CCC(=O)O)NC(=O)[C@H](CC(=O)O)NC(=O)[C@H](CC(C)C)NC(=O)[C@H](CC(C)C)NC(=O)[C@@H](NC(=O)[C@H](CO)NC(=O)[C@H](Cc1ccc(O)cc1)NC(=O)[C@H](CC(=O)O)NC(=O)[C@H](CO)NC(=O)[C@@H](NC(=O)[C@](C)(Cc1ccccc1F)NC(=O)[C@@H](NC(=O)CNC(=O)[C@H](CCC(N)=O)NC(=O)C(C)(C)NC(=O)[C@@H](N)Cc1ccc(O)cc1)[C@@H](C)O)[C@@H](C)O)[C@@H](C)CC)C(=O)N[C@@H](CCC(=O)O)C(=O)N[C@@H](Cc1ccc(O)cc1)C(=O)N[C@@H](CC(C)C)C(=O)N[C@@H](CC(C)C)C(=O)N[C@@H](C)C(=O)NCC(=O)NCC(=O)N1CCC[C@H]1C(=O)N[C@@H](CO)C(=O)N[C@@H](CO)C(=O)NCC(=O)N[C@@H](C)C(=O)N1CCC[C@H]1C(=O)N1CCC[C@H]1C(=O)N1CCC[C@H]1C(=O)N[C@@H](CO)C(N)=O` [HEC-PT112] as the compound, how does the EC50 (GIPR) read?
Answer: 0.0534 nM

Question: What about the EC50 (GLP-1R) of the same compound?
Answer: 0.183 nM

Question: And the “Blood glucose level (mM) 15 min” value ([1]; 3 nmol/kg s.c. single dose, 24 h after administration, 15 min after 2 g/kg glucose i.p.)?
Answer: 11.7 ± 2.6 mM

Question: What about the “Blood glucose level (mM) 30 min” value ([1]; 3 nmol/kg s.c. single dose, 24 h after administration, 30 min after 2 g/kg glucose i.p.) of the same compound?
Answer: 8.6 ± 1.9 mM

Question: And the “Blood glucose level (mM) 60 min” value ([1]; 3 nmol/kg s.c. single dose, 24 h after administration, 60 min after 2 g/kg glucose i.p.)?
Answer: 7.3 ± 0.7 mM

Question: And the “Blood glucose level (mM) 90 min” value ([1]; 3 nmol/kg s.c. single dose, 24 h after administration, 90 min after 2 g/kg glucose i.p.)?
Answer: 6.7 ± 0.6 mM

Question: And the “Blood glucose level (mM) 0 min” value ([1]; 3 nmol/kg s.c. single dose, 24 h after administration, basal before 2 g/kg glucose i.p.)?
Answer: 4.9 ± 1.3 mM

Question: And the “improvement of glucose tolerance compared with LY3298176” value ([1]; 24 hours after a single administration, 3 nmol/kg)?
Answer: improved glucose tolerance in mice better than the positive control LY3298176

Question: What about the AUC0-90 min ([1]; blood glucose AUC, 3 nmol/kg s.c. single dose, 24 h after administration, 2 g/kg glucose i.p.) of the same compound?
Answer: 726.2±82.4^a

Question: What about the “Cumulative food intake (g/pcs) D7” value [2, 3] of the same compound?
Answer: 5.6 g/pcs

Question: What about the “Weight gain rate (%) D7” value [2, 3] of the same compound?
Answer: -21.3±4.0%

Question: And the “Cumulative food intake (g/pcs) D10” value [2, 4]?
Answer: 7.8 g/pcs

Question: And the “Weight gain rate (%) D10” value [2, 4]?
Answer: -28.6±7.0%

Question: What about the “Cumulative food intake (g/each) D13” value [2, 5] of the same compound?
Answer: 10.6 g/each

Question: And the “Weight gain rate (%) D13” value [2, 5]?
Answer: -32.4±7.7%

Question: And the “Cumulative food intake (g/each) D16” value [2, 6]?
Answer: 15.5 g/each

Question: What about the “Weight gain rate (%) D16” value [2, 6] of the same compound?
Answer: -34.0±7.1%

Question: And the “Cumulative food intake (g/each) D19” value [2, 7]?
Answer: 21.0 g/each

Question: And the “Weight gain rate (%) D19” value [2, 7]?
Answer: -34.5±5.7%

Question: What about the “Cumulative food intake (g/each) D22” value [2, 8] of the same compound?
Answer: 26.6 g/each

Question: And the “Weight gain rate (%) D22” value [2, 8]?
Answer: -35.6±5.6%

Question: And the “Cumulative food intake (g/each) D25” value [2, 9]?
Answer: 32.3 g/each

Question: And the “Weight gain rate (%) D25” value [2, 9]?
Answer: -36.4±5.1%

Question: What about the “Cumulative food intake (g/each) D28” value [2, 10] of the same compound?
Answer: 39.1 g/each

Question: What about the “Weight gain rate (%) D28” value [2, 10] of the same compound?
Answer: -36.2±4.3%

Question: What about the “Cumulative food intake (g/each) D30” value ([2]; 10 nmol/kg s.c. once every 3 days, D30) of the same compound?
Answer: 43.0^a g/each

Question: And the “Weight gain rate (%) D31” value ([2]; 10 nmol/kg s.c. once every 3 days, D31)?
Answer: -35.6±4.3^a %

Question: What about the “Cumulative food intake (g/pcs) D0” value ([2]; 10 nmol/kg s.c., D0) of the same compound?
Answer: 2.3 g/pcs

Question: And the “Weight gain rate (%) D0” value ([2]; 10 nmol/kg s.c., D0)?
Answer: 0.0±0.0%

Question: And the “Cumulative food intake (g/pcs) D1” value ([2]; 10 nmol/kg s.c., D1)?
Answer: 2.5 g/pcs

Question: And the “Weight gain rate (%) D1” value ([2]; 10 nmol/kg s.c., D1)?
Answer: -5.4±0.9%

Question: And the “Cumulative food intake (g/pcs) D2” value ([2]; 10 nmol/kg s.c., D2)?
Answer: 2.9 g/pcs

Question: What about the “Weight gain rate (%) D2” value ([2]; 10 nmol/kg s.c., D2) of the same compound?
Answer: -8.8±0.8%

Question: And the “Cumulative food intake (g/pcs) D3” value ([2]; 10 nmol/kg s.c., D3)?
Answer: 3.5 g/pcs

Question: What about the “Weight gain rate (%) D3” value ([2]; 10 nmol/kg s.c., D3) of the same compound?
Answer: -10.6±1.0%

Question: What about the “Cumulative food intake (g/pcs) D4” value ([2]; 10 nmol/kg s.c., D4) of the same compound?
Answer: 4.1 g/pcs

Question: And the “Weight gain rate (%) D4” value ([2]; 10 nmol/kg s.c., D4)?
Answer: -12.6±1.7%

Question: And the “liver function and blood lipids of DIO mice” value ([2]; after 4 weeks of administration)?
Answer: significantly improved the liver function and blood lipids

Question: What about the “food intake inhibition effect compared with LY3298176” value [2, 11] of the same compound?
Answer: certain advantages in inhibiting food intake

Question: And the “weight loss effect compared with LY3298176” value [2, 11]?
Answer: significantly better than that of LY3298176

Question: And the Liver index/% [2, 12]?
Answer: 3.0±0.0^a %

Question: What about the Liver/g [2, 12] of the same compound?
Answer: 0.9±0.1^a g

Question: What about the Weight/g [2, 12] of the same compound?
Answer: 29.7±2.5^a g

Question: And the “ALT (U/L)” value [2, 13]?
Answer: 25.9±6.6^a U/L

Question: What about the “AST (U/L)” value [2, 13] of the same compound?
Answer: 115.3±16.2^a U/L

Question: And the “CHOL (mmol/L)” value [2, 13]?
Answer: 3.1±0.5^a mmol/L

Question: What about the “TRIGL (mmol/L)” value [2, 13] of the same compound?
Answer: 0.6±0.1^a mmol/L

Question: What about the EC50 (GCGR) of the same compound?
Answer: 0.871 nM
